In patent US12594276B2, “Inhibitors of human immunodeficiency virus replication” (ViiV Healthcare UK (No.5) Limited, priority 2024, dated 2026):

Assays:
[1] = system: recombinant NL4-3 virus (nef section replaced with Renilla luciferase gene) in MT-2 cells; assay: HIV cell culture assay (antiviral activity, luciferase readout); type: cell-based; conditions: Renilla, NL43, MT-2 cells infected for 4-5 days with recombinant NL4-3 Renilla luciferase virus
Outline: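 EC50 was derived by median-effect fitting of Renilla luciferase signal from MT-2 cells. These cells were infected for 4–5 days with NL4-3 reporter virus (nef partly replaced by luciferase; made in 293T cells) in the presence of serially diluted compound. Activity was quantified with a live-cell luciferase substrate.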

[2] = Compound cytotoxicity, XTT-based colorimetric assay; type: cell-based; conditions: human; uninfected MT2 cells, day 4, XTT; read-out: CC50
Outline: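 Follows the antiviral assay procedure, but with uninfected MT2 cells. On day 4, cell viability is measured by XTT-based colorimetry, giving CC50 values.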

For `COCCCn1nc(NS(C)(=O)=O)c2c(Cl)ccc(-n3c([C@H](Cc4cc(F)cc(F)c4)NC(=O)Cn4nc(C(F)F)c5c4C(F)(F)[C@@H]4C[C@H]54)nc4nc(C5CCC(F)(F)CC5)cc(NCCN(C)C)c4c3=O)c21` (atropisomer, axis not shown; (P)) [Example 522, N-[(1S)-1-[(3P)-3-[4-chloro-3-methanesulfonamido-1-(3-methoxypropyl)-1H-indazol-7-yl]-7-(4,4-difluorocyclohexyl)-5-{[2-(dimethylamino)ethyl]amino}-4-oxo-3H,4H-pyrido[2,3-d]pyrimidin-2-yl]-2-(3,5-difluorophenyl)ethyl]-2-[(2S,4R)-9-(difluoromethyl)-5,5-difluoro-7,8-diazatricyclo[4.3.0.0^2,^4]nona-1(6),8-dien-7-yl]acetamide], the EC50 [1] was 0.014 nM and the CC50 at 4 days [2] was over 20 nM.
`COCCCn1nc(NS(C)(=O)=O)c2c(Cl)ccc(-n3c([C@H](Cc4cc(F)cc(F)c4)NC(=O)Cn4nc(C(F)F)c5c4C(F)(F)[C@@H]4C[C@H]54)nc4nc(C5CCC(F)(F)CC5)cc(NCCN5CCC(C)(C)CC5)c4c3=O)c21` (atropisomer, axis not shown; (P)) [Example 523, N-[(1S)-1-[(3P)-3-[4-chloro-3-methanesulfonamido-1-(3-methoxypropyl)-1H-indazol-7-yl]-7-(4,4-difluorocyclohexyl)-5-{[2-(4,4-dimethylpiperidin-1-yl)ethyl]amino}-4-oxo-3H,4H-pyrido[2,3-d]pyrimidin-2-yl]-2-(3,5-difluorophenyl)ethyl]-2-[(2S,4R)-9-(difluoromethyl)-5,5-difluoro-7,8-diazatricyclo[4.3.0.0^2,^4]nona-1(6),8-dien-7-yl]acetamide] showed an EC50 [1] of 0.012 nM and a CC50 at 4 days [2] of over 20 nM.
`CO[C@@H](C)Cn1nc(NS(C)(=O)=O)c2c(Cl)ccc(-n3c([C@H](Cc4cc(F)cc(F)c4)NC(=O)Cn4nc(C(F)F)c5c4C(F)(F)[C@@H]4C[C@H]54)nc4nc(C5CCC(F)(F)CC5)cc(C)c4c3=O)c21` (atropisomer, axis not shown; (P)) [Example 78, N-[(1S)-1-[(3P)-3-{4-chloro-3-methanesulfonamido-1-[(2S)-2-methoxypropyl]-1H-indazol-7-yl}-7-(4,4-difluorocyclohexyl)-5-methyl-4-oxo-3H,4H-pyrido[2,3-d]pyrimidin-2-yl]-2-(3,5-difluorophenyl)ethyl]-2-[(2S,4R)-9-(difluoromethyl)-5,5-difluoro-7,8-diazatricyclo[4.3.0.0^2,^4]nona-1(6),8-dien-7-yl]acetamide] gave an EC50 [1] of 0.016 nM and a CC50 at 4 days [2] of over 50 nM.
Molecule `COCCNc1cc(C2CCC(F)(F)CC2)nc2nc([C@H](Cc3cc(F)cc(F)c3)NC(=O)Cn3nc(C(F)F)c4c3C(F)(F)[C@@H]3C[C@H]43)n(-c3ccc(Cl)c4c(NS(C)(=O)=O)nn(CCN5C[C@@H](F)[C@@H](F)C5)c34)c(=O)c12` (atropisomer, axis not shown; (P)) [Example 417, N-[(1S)-1-[(3P)-3-(4-chloro-1-{2-[(3R,4S)-3,4-difluoropyrrolidin-1-yl]ethyl}-3-methanesulfonamido-1H-indazol-7-yl)-7-(4,4-difluorocyclohexyl)-5-[(2-methoxyethyl)amino]-4-oxo-3H,4H-pyrido[2,3-d]pyrimidin-2-yl]-2-(3,5-difluorophenyl)ethyl]-2-[(2S,4R)-9-(difluoromethyl)-5,5-difluoro-7,8-diazatricyclo[4.3.0.0^2,^4]nona-1(6),8-dien-7-yl]acetamide] has an EC50 [1] of 0.007 nM and a CC50 at 4 days [2] of over 20 nM.
In the case of `CS(=O)(=O)Nc1nn(CCN2CCC(F)CC2)c2c(-n3c([C@H](Cc4cc(F)cc(F)c4)NC(=O)Cn4nc(C(F)F)c5c4C(F)(F)[C@@H]4C[C@H]54)nc4nc(C5CCC(F)(F)CC5)ccc4c3=O)ccc(Cl)c12` (atropisomer, axis not shown; (P)) [Example 166, N-[(1S)-1-[(3P)-3-{4-chloro-1-[2-(4-fluoropiperidin-1-yl)ethyl]-3-methanesulfonamido-1H-indazol-7-yl}-7-(4,4-difluorocyclohexyl)-4-oxo-3H,4H-pyrido[2,3-d]pyrimidin-2-yl]-2-(3,5-difluorophenyl)ethyl]-2-[(2S,4R)-9-(difluoromethyl)-5,5-difluoro-7,8-diazatricyclo[4.3.0.0^2,^4]nona-1(6),8-dien-7-yl]acetamide], the EC50 [1] is reported as 0.019 nM and the CC50 at 4 days [2] is reported as over 50 nM.
With `COCc1cc(C2CCC(F)(F)CC2)nc2nc([C@H](Cc3cc(F)cc(F)c3)NC(=O)Cn3nc(C(F)F)c4c3C(F)(F)[C@@H]3C[C@H]43)n(-c3ccc(Cl)c4c(NS(C)(=O)=O)nn(CCN5CCC(F)(F)CC5)c34)c(=O)c12` (atropisomer, axis not shown; (P)) [Example 676, N-[(1S)-1-[(3P)-3-{4-chloro-1-[2-(4,4-difluoropiperidin-1-yl)ethyl]-3-methanesulfonamido-1H-indazol-7-yl}-7-(4,4-difluorocyclohexyl)-5-(methoxymethyl)-4-oxo-3H,4H-pyrido[2,3-d]pyrimidin-2-yl]-2-(3,5-difluorophenyl)ethyl]-2-[(2S,4R)-9-(difluoromethyl)-5,5-difluoro-7,8-diazatricyclo[4.3.0.0^2,^4]nona-1(6),8-dien-7-yl]acetamide] the EC50 [1] was 0.011 nM and the CC50 at 4 days [2] was over 20 nM.
In the case of `Cc1cc(C2CCC(F)(F)CC2)nc2nc([C@H](Cc3cc(F)cc(F)c3)NC(=O)Cn3nc(C(F)F)c4c3C(F)(F)[C@@H]3C[C@H]43)n(-c3ccc(Cl)c4c(NS(C)(=O)=O)nn(CCN5CCCC(F)(F)C5)c34)c(=O)c12` (atropisomer, axis not shown; (P)) [Example 14, N-[(1S)-1-[(3P)-3-{4-chloro-1-[2-(3,3-difluoropiperidin-1-yl)ethyl]-3-methanesulfonamido-1H-indazol-7-yl}-7-(4,4-difluorocyclohexyl)-5-methyl-4-oxo-3H,4H-pyrido[2,3-d]pyrimidin-2-yl]-2-(3,5-difluorophenyl)ethyl]-2-[(2S,4R)-9-(difluoromethyl)-5,5-difluoro-7,8-diazatricyclo[4.3.0.0^2,^4]nona-1(6),8-dien-7-yl]acetamide], the EC50 [1] is reported as 0.009 nM and the CC50 at 4 days [2] is reported as over 50 nM.
Work on `Cc1cc(C2(F)CCC(F)(F)CC2)nc2nc([C@H](Cc3cc(F)cc(F)c3)NC(=O)Cn3nc(C(F)F)c4c3C(F)(F)[C@@H]3C[C@H]43)n(-c3ccc(Cl)c4c(NS(C)(=O)=O)nn(CCN5CCOCC5(C)C)c34)c(=O)c12` (atropisomer, axis not shown; (P)) [Example 579, N-[(1S)-1-[(3P)-3-{4-chloro-1-[2-(3,3-dimethylmorpholin-4-yl)ethyl]-3-methanesulfonamido-1H-indazol-7-yl}-5-methyl-4-oxo-7-(1,4,4-trifluorocyclohexyl)-3H,4H-pyrido[2,3-d]pyrimidin-2-yl]-2-(3,5-difluorophenyl)ethyl]-2-[(2S,4R)-9-(difluoromethyl)-5,5-difluoro-7,8-diazatricyclo[4.3.0.0^2,^4]nona-1(6),8-dien-7-yl]acetamide] yielded an EC50 [1] of 0.011 nM and a CC50 at 4 days [2] of over 20 nM.
`Cc1cc(C2CCC(F)(F)CC2)nc2nc([C@H](Cc3cc(F)cc(F)c3)NC(=O)Cn3nc(C4CC4)c4c3C[C@@H]3C[C@H]43)n(-c3ccc(Cl)c4c(NS(C)(=O)=O)nn([C@@H](C)CN5CC(C)(C)OC(C)(C)C5)c34)c(=O)c12` (relative stereo) [Example 724, N-[(1S)-1-[(3P)-3-{4-chloro-3-methanesulfonamido-1-[(2S)-1-(2,2,6,6-tetramethylmorpholin-4-yl)propan-2-yl]-1H-indazol-7-yl}-7-(4,4-difluorocyclohexyl)-5-methyl-4-oxo-3H,4H-pyrido[2,3-d]pyrimidin-2-yl]-2-(3,5-difluorophenyl)ethyl]-2-[(2R*,4R*)-9-cyclopropyl-7,8-diazatricyclo[4.3.0.0^2,^4]nona-1(6),8-dien-7-yl]acetamide] gave an EC50 [1] of 0.036 nM and a CC50 at 4 days [2] of over 20 nM.
`CS(=O)(=O)Nc1nn(CCN2CCOCC2)c2c(-n3c([C@H](Cc4cc(F)cc(F)c4)NC(=O)Cn4nc(C5CC5)c5c4C[C@@H]4C[C@H]54)nc4nc(C5CCC(F)(F)CC5)cc(C(F)F)c4c3=O)ccc(Cl)c12` [Example 227, N-[(1S)-1-[(3P)-3-{4-chloro-3-methanesulfonamido-1-[2-(morpholin-4-yl)ethyl]-1H-indazol-7-yl}-7-(4,4-difluorocyclohexyl)-5-(difluoromethyl)-4-oxo-3H,4H-pyrido[2,3-d]pyrimidin-2-yl]-2-(3,5-difluorophenyl)ethyl]-2-[(2S,4S)-9-cyclopropyl-7,8-diazatricyclo[4.3.0.0^2,^4]nona-1(6),8-dien-7-yl]acetamide] gave an EC50 [1] of 0.016 nM and a CC50 at 4 days [2] of over 50 nM.
`COCCNc1cc(C2CCC(F)(F)CC2)nc2nc([C@H](Cc3cc(F)cc(F)c3)NC(=O)Cn3nc(C(F)F)c4c3C(F)(F)[C@@H]3C[C@H]43)n(-c3ccc(Cl)c4c(NS(C)(=O)=O)nn(CCN5C[C@@H](C)O[C@@H](C)C5)c34)c(=O)c12` (atropisomer, axis not shown; (P)) [Example 418, N-[(1S)-1-[(3P)-3-(4-chloro-1-{2-[(2R,6S)-2,6-dimethylmorpholin-4-yl]ethyl}-3-methanesulfonamido-1H-indazol-7-yl)-7-(4,4-difluorocyclohexyl)-5-[(2-methoxyethyl)amino]-4-oxo-3H,4H-pyrido[2,3-d]pyrimidin-2-yl]-2-(3,5-difluorophenyl)ethyl]-2-[(2S,4R)-9-(difluoromethyl)-5,5-difluoro-7,8-diazatricyclo[4.3.0.0^2,^4]nona-1(6),8-dien-7-yl]acetamide] gave an EC50 [1] of 0.019 nM and a CC50 at 4 days [2] of over 20 nM.
